PMC12794336, “Unconventional chalcogen-containing azolylidene metal complexes as potential anticancer therapeutics” (Chemical Science, 2025)

Key:
[1] = test system: A2780cis cells with acquired resistance to cisplatin; test: Cytotoxicity, PrestoBlue assay, A2780cis; type: cell-based, human; conditions: 72 h, PrestoBlue; read-out: IC50 (µM) after 72 h, A2780cis
Experimental: (§1) counterpart, A2780cis, were procured from the European Collection of Cell
(§2) (ThermoFisher, USA) base medium supplemented with 10% Foetal Bovine
(§3) Serum (FBS; Sigma, Germany) and 1% of Penicillin-Streptomycin
(§4) (ThermoFisher, USA). Additionally, A2780cis cell line was cultured in the
(§5) drug. The human embryonic kidney cell line, HEK293T, and HeLa cell line were
(§6) obtained from American Type Culture Collection (ATCC, USA) and were cultured
(§7) in DMEM GlutaMAX (ThermoFisher, USA) base medium, supplemented with
(§8) 10% FBS and 1% of Penicillin-Streptomycin. All cell lines were maintained in a
(§9) humidified incubator at37 °C and 5% CO2.
(§10) 4.2. Cytotoxicity studies
(§11) cells/mL (A2780cis and HEK293T) was dispensed into flat bottom 96-well plates
(§12) and allowed to attach overnight. On the next day, 10 mM stock solutions of the
(§13) tested compounds were prepared in DMSO, then diluted with media to the final
(§14) concentration range of 0 - 100 µM and applied to the cells; 0.1% DMSO final
(§15) solution and 10 µM final concentration gambogic acid were used as negative and
(§16) positive controls, respectively. After 72 h incubation in a humidified incubator
(§17) under 5% CO2 at 37 °C, PrestoBlue™ cell viability reagent (Cat. No. A13262,
(§18) Invitrogen, USA) was added to cultures at a 1:10 ratio according to the
(§19) manufacturer instructions, and samples were incubated for 1.5 h. Fluorescence
(§20) at 560/590 nm was detected with Tecan Infinite 500 microplate reader (Tecan,
(§21) Switzerland). Three wells were assessed for each concentration of the tested
(§22) compounds and three independent experiments were performed. Non-linear
(§23) regression and IC50 value calculation were performed in GraphPad Prism 9 using
(§24) the build-in function “Dose response- Inhibition”.

[2] = n-octanol/water; cited from earlier work
[3] = test system: A2780 ovarian cancer cell line; test: Cytotoxicity, PrestoBlue assay, A2780; type: cell-based, human; conditions: 72 h, PrestoBlue; read-out: IC50 (µM) after 72 h, A2780
Experimental: as §1, §2, §3, §4, §5, §6, §7, §8, §9, §10, §11, §12, §13, §14, §15, §16, §17, §18, §19, §20, §21, §22, §23, §24

[4] = test system: non-cancerous human embryonic kidney HEK293T cells; test: Cytotoxicity, PrestoBlue assay, HEK293T; type: cell-based; conditions: 72 h, PrestoBlue; read-out: IC50 (µM) after 72 h, HEK293T
Experimental: as §1, §2, §3, §4, §5, §6, §7, §8, §9, §10, §11, §12, §13, §14, §15, §16, §17, §18, §19, §20, §21, §22, §23, §24

[5] = test system: A2780, A2780cis and HEK293T cell lines; test: Cytotoxicity stated jointly for all three cell lines; type: cell-based, human; conditions: HEK293T together, 72 h
Experimental: as §1, §2, §3, §4, §5, §6, §7, §8, §9, §10, §11, §12, §13, §14, §15, §16
under 5% CO2 at 37 °C, PrestoBlue™ cell viability reagent (Cat. No. A13262, […]
as §19, §20
Switzerland). Three wells were assessed for each concentration of the tested […]

[6] = design: method as in PMID 21082862; conditions: cell line not stated; read-out: Cytotoxicity reported in the literature; cited from earlier work

SMILES: Cc1ccc(C(C)C)cc1.[Cl][Ru]([Cl])[PH]12CN3CN(CN(C3)C1)C2 [RAPTA-C, reference compound]
- IC50 [1]: > 100 µM
- logPOW [2]: −1.8 (ref. [64])
- IC50 [3]: > 100 µM
- IC50 [4]: > 100 µM
- IC50 [5]: > 100 µM

SMILES: CCn1[c]([Au-][Cl])[n+](CC)c2ccccc21 [same complex bearing a chlorido ligand]
- IC50 [6]: 6.4 ± 2 µM
